Experimental data published in ChEMBL document CHEMBL4828732, “Synthesis and biological evaluation of selective survivin inhibitors derived from the MX-106 hydroxyquinoline scaffold” (Eur J Med Chem, 2021).

How the values were obtained:
MDA-MB-453 = assay: cells; conditions: Homo sapiens, MDA-MB-453, 72 h
MDA-MB-435/LCC6MDR1 = assay: cells; conditions: Homo sapiens, MDA-MB-435, 72 h
RPMI-7951 = assay: cells; conditions: Homo sapiens, RPMI-7951, 72 h
MDA-MB-435 = assay: cells; conditions: Homo sapiens, MDA-MB-435, 72 h
A-375 = assay: cells; conditions: Homo sapiens, A-375, 72 h
[1] = Resistance index, ratio of IC50 for antiproliferation activity against human MDA-MB-435/LCC6MDR cells to IC50 for antiproliferation activity against human MDA-MB-435 cells assessed as cell growth inhibition measured after 72 hrs by MTS assay; format: functional
SK-BR-3 = assay: cells; conditions: Homo sapiens, SK-BR-3, 72 h

SMILES | IC50 (MDA-MB-453) | IC50 (MDA-MB-435/LCC6MDR1) | IC50 (RPMI-7951) | IC50 (MDA-MB-435) | IC50 (A-375) | Ratio IC50 [1] | IC50 (SK-BR-3)
CC(C)c1ccc(-c2cnn(Cc3cc(CN4CCCC4)c(O)c4ncccc34)n2)cc1 | 5.9 µM | 1.7 µM | 2.3 µM | 4.6 µM | 1.1 µM | 0.4 | 4.9 µM
CCN(CC)Cc1cc(Cn2ncc(-c3ccc(C(F)(F)F)cc3)n2)c2cccnc2c1O | 6.2 µM | 1.7 µM | 1.9 µM | 3.8 µM | 1 µM | 0.5 | 4 µM
COc1ccc(-c2cnn(Cc3cc(CN4CCCC4)c(O)c4ncccc34)n2)cc1 | 2.2 µM | 1.4 µM | 0.9 µM | 3.9 µM | 0.9 µM | 0.3 | 2.8 µM
Cc1ccc(-c2cnn(Cc3cc(CN4CCCC4)c(O)c4ncccc34)n2)cc1 | 2.9 µM | 0.7 µM | 0.6 µM | 2 µM | – | 0.4 | 2.9 µM
Oc1c(CN2CCCC2)cc(COC2CCc3ccccc3C2)c2cccnc12 (configuration not stated) | – | 1.3 µM | 0.8 µM | 3.3 µM | 1 µM | 0.4 | 3.9 µM
CC(C)c1ccc(COCc2cc(-c3ccsc3)c(O)c3ncccc23)cc1 | 0.6 µM | 0.9 µM | 0.5 µM | 1.1 µM | 0.6 µM | 0.9 | 0.8 µM
Cc1cccc(-c2cc(COCc3ccc(C(C)C)cc3)c3cccnc3c2O)c1 | 1.7 µM | 1 µM | 1.1 µM | 1.8 µM | 0.7 µM | 0.6 | 3.3 µM
Oc1c(CN2CCCC2)cc(Cn2ncc(-c3ccccc3)n2)c2cccnc12 | 2.9 µM | 0.6 µM | 3.1 µM | 5 µM | 2 µM | 0.1 | 4 µM
COc1ccc(-c2cc(COCc3ccc(C(C)C)cc3)c3cccnc3c2O)cc1 | 0.8 µM | 3 µM | 0.6 µM | 1.9 µM | 0.8 µM | 1.6 | 1.3 µM
Oc1c(CN2CCOCC2)cc(Cn2ncc(-c3ccc(Br)cc3)n2)c2cccnc12 | 2.4 µM | 0.9 µM | 0.7 µM | 2.4 µM | 1 µM | 0.4 | 3 µM
CCc1ccc(-c2cnn(Cc3cc(CN4CCCC4)c(O)c4ncccc34)n2)cc1 | 3.3 µM | 1 µM | 0.7 µM | 3.2 µM | 0.7 µM | 0.3 | 3.3 µM
Cc1ccc(-c2cc(COCc3ccc(C(C)C)cc3)c3cccnc3c2O)cc1 | 0.9 µM | 2.3 µM | 0.7 µM | 1.8 µM | 0.8 µM | 1.3 | 1.6 µM
Oc1c(CN2CCCC2)cc(Cn2cnc(-c3ccccc3)c2)c2cccnc12 | 3.1 µM | 1.3 µM | 2.8 µM | 8.9 µM | 2.2 µM | 0.1 | 6.9 µM
Oc1c(CN2CCCC2)cc(COC2Cc3ccccc3C2)c2cccnc12 | 2.4 µM | 2.2 µM | 1.3 µM | 2.2 µM | 1.9 µM | 1 | 5.9 µM
O=[N+]([O-])c1ccc(-c2cnn(Cc3cc(CN4CCCC4)c(O)c4ncccc34)n2)cc1 | 4.1 µM | 1.1 µM | 0.7 µM | 4.1 µM | 0.7 µM | 0.3 | 3.6 µM
Oc1c(CN2CCNCC2)cc(Cn2ncc(-c3ccc(Br)cc3)n2)c2cccnc12 | 2 µM | 5.1 µM | 0.6 µM | 4.7 µM | 0.8 µM | 1.1 | 2.4 µM
CC(C)c1ccc(COCc2cc(Br)c(O)c3ncccc23)cc1 | 1.3 µM | 0.2 µM | 0.8 µM | 2.1 µM | 1 µM | 0.1 | 5.7 µM
Oc1c(CN2CCCC2)cc(Cn2ncc(-c3ccc(C(F)(F)F)cc3)n2)c2cccnc12 | 3.5 µM | 1.1 µM | 1.6 µM | 4.1 µM | 0.8 µM | 0.3 | 3.2 µM
CC(C)c1ccc(COCc2cc(-c3ccnc4ccccc34)c(O)c3ncccc23)cc1 | 1.7 µM | 1 µM | 0.7 µM | 1.2 µM | 0.8 µM | 0.8 | 3.1 µM
N#Cc1ccc(-c2cnn(Cc3cc(CN4CCCC4)c(O)c4ncccc34)n2)cc1 | 4.1 µM | 1.8 µM | 0.8 µM | 5.9 µM | 1 µM | 0.3 | 6 µM
CC(C)c1ccc(COCc2cc(CN3CCCC3)c(O)c3ncccc23)cc1 | 1.6 µM | 2.1 µM | 1.1 µM | 3.5 µM | 1 µM | 0.6 | 2.3 µM
Oc1c(CN2CCCC2)cc(Cn2ncc(-c3ccc(OCc4ccccc4)cc3)n2)c2cccnc12 | 1.8 µM | 2.2 µM | 0.6 µM | 3.2 µM | 0.9 µM | 0.7 | 2.7 µM
Oc1c(CN2CCCC2)cc(Cn2ncc(-c3ccccc3Br)n2)c2cccnc12 | 3.1 µM | 0.5 µM | 0.7 µM | 2.4 µM | 0.7 µM | 0.2 | 3 µM
Oc1c(CN2CCCCCC2)cc(Cn2ncc(-c3ccc(C(F)(F)F)cc3)n2)c2cccnc12 | 6.3 µM | 1.6 µM | 2.1 µM | 3.1 µM | 0.9 µM | 0.5 | 4.2 µM
CC(C)c1ccc(COCc2cc(-c3ccc(C(F)(F)F)cc3)c(O)c3ncccc23)cc1 | 4.4 µM | 1.2 µM | 1.3 µM | 1.9 µM | 0.9 µM | 0.6 | 5.7 µM
Oc1c(CN2CCCC2)cc(Cn2ncc(-c3ccsc3)n2)c2cccnc12 | 2.2 µM | 1.6 µM | 1.3 µM | 4.8 µM | 1.1 µM | 0.3 | 2.7 µM
COCC[n+]1c2c(n(Cc3cnccn3)c1C)C(=O)c1ccccc1C2=O.[Br-] [SEPANTRONIUM BROMIDE] | – | > 1 µM | – | – | – | >425 | –
